Test results reported in PMC10196813 (Angewandte Chemie (International ed. in English), 2023).
Peptide text beside a SMILES is read from it. * marks the point of attachment. Cbz = O=C(OCc1ccccc1)*

Each compound was assayed on PTP1B/TC-PTP. Details: HEK293 cells, followed by 4 h DU-14 at 100 nM.
Format: cell-based

| SMILES | effect of pre-treatment/addition on DU-14 mediated PTP1B and TC-PTP degradation |
| --- | --- |
| Cc1ncsc1-c1ccc([C@H](C)NC(=O)[C@@H]2C[C@@H](O)CN2C(=O)[C@@H](N)C(C)(C)C)cc1 [(S,R,S)-AHPC-Me] | reduced |
| Nc1cccc2c1CN(C1CCC(=O)NC1=O)C2=O (stereo not shown) [Lenalidomide] | had no effect |
| CC(C)C[C@@H](C=O)NC(=O)[C@H](CC(C)C)NC(=O)[C@H](CC(C)C)NC(=O)OCc1ccccc1 [MG-132] (Cbz-Leu-Leu-Leu-aldehyde) | markedly reduced |
| NS(=O)(=O)OC[C@@H]1C[C@@H](n2ccc3c(N[C@H]4CCc5ccccc54)ncnc32)C[C@@H]1O [MLN-4924] | markedly reduced |
